Data as given in ChEMBL document CHEMBL1121470, “Synthesis and antiinflammatory activity of some 2-(substituted-pyridinyl)benzimidazoles” (J Med Chem, 1980).

What was measured:
Rattus norvegicus [1] = assay: Antiinflammatory activity by carrageenan-induced rat paw edema assay after 3 hr at 100 mg/kg concentration administered perorally.; type: functional; conditions: route oral
Rattus norvegicus [2] = assay: Antiinflammatory activity was evaluated by carrageenan-induced rat paw edema assay after 3 hr at 100 mg/kg concentration administered perorally; type: functional; conditions: route oral
Mus musculus [3] = assay: Compound was evaluated for analgesia at 100 mg/kg when administered perorally (- = positive mice</=1); type: functional; conditions: route oral
[4] = Compound was evaluated for lethal dose in mice when administarted intraperitoneally; type: toxicity, organism-based; conditions: mouse, in vivo, ip
Rattus norvegicus [5] = assay: Antiinflammatory activity was evaluated by carrageenan-induced rat paw edema assay after 3 hr at 100 mg/kg concentration administered perorally (=p</=0.01); type: functional; conditions: route oral
Rattus norvegicus [6] = assay: Antiinflammatory activity was evaluated by contund edema assay after 3 hr at 200 mg/kg concentration administered perorally; type: functional; conditions: route oral
Mus musculus [7] = assay: Compound was evaluated for analgesic activity at 100 mg/kg when administered perorally (- = positive mice</= 1); type: functional; conditions: route oral
Mus musculus [8] = assay: Compound was tested for acute toxicity when administered perorally; type: functional; conditions: po
Rattus norvegicus [9] = assay: Compound was tested for ulcerogenicity when administered perorally; type: functional
Rattus norvegicus [10] = assay: Compound was tested for inhibition of carrageenan induced edema when administered perorally; type: functional; conditions: po
Cyclooxygenase = molecular target: T1, Cyclooxygenase (Rattus norvegicus, UniProt P35355+Q63921); assay: Compound was tested for inhibition of prostaglandin synthetase […]; type: protein assay
T1 sequence (P35355 whole entry): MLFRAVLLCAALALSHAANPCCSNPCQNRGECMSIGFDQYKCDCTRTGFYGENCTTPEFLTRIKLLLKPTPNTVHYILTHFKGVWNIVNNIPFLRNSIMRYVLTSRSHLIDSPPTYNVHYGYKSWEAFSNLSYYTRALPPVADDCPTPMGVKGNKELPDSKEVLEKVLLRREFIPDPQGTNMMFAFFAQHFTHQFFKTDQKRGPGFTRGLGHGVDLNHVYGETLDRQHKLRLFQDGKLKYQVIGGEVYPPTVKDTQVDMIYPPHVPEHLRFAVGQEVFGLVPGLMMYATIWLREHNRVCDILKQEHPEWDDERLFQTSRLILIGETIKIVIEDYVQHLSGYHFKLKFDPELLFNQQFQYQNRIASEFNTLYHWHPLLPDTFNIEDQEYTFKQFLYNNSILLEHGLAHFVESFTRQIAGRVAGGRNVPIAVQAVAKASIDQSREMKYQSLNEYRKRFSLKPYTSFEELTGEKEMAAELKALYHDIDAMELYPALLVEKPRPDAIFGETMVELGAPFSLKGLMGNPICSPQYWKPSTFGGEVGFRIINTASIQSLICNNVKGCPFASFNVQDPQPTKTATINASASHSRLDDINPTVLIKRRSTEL
T1 sequence (Q63921 whole entry): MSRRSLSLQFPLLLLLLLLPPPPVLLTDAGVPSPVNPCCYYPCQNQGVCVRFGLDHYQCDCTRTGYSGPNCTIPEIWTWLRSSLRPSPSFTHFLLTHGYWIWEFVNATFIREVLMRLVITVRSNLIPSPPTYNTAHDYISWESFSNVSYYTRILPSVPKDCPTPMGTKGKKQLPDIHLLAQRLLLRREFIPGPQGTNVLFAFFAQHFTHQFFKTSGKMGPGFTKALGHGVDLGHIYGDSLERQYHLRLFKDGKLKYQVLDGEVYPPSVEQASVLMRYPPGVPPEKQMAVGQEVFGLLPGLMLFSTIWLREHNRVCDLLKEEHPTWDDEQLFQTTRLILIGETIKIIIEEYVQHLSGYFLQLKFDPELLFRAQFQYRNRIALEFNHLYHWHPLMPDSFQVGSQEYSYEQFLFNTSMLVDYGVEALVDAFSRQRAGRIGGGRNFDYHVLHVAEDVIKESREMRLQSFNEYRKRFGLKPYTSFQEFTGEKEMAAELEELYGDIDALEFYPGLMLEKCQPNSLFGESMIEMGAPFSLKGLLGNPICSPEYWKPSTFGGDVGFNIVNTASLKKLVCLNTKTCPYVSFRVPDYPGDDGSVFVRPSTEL

Rattus norvegicus [11] = assay: Compound was tested for anti-pyrexia when administered perorally; type: functional; conditions: po
Rattus norvegicus [12] = assay: Compound was tested for inhibition of contund edema when administered perorally; conditions: po
Rattus norvegicus [13] = assay: Compound was tested for inhibition of scald edema when administered perorally; type: functional; conditions: po
Rattus norvegicus [14] = assay: Compound was tested for analgesia when administered perorally; type: functional; conditions: po
Mus musculus [15] = assay: Compound was evaluated for analgesia at 100 mg/kg when administered perorally (+ = positive mice >/= 2); type: functional; conditions: route oral
Rattus norvegicus [16] = assay: Antiinflammatory activity was evaluated by contund edema after 3 hr at 200 mg/kg concentration administered perorally; type: functional; conditions: route oral
Rattus norvegicus [17] = assay: Antiinflammatory activity was evaluated by carrageenan-induced rat paw edema assay after 3 hr at 100 mg/kg concentration administered perorally (=p< 0.05); type: functional; conditions: route oral
Mus musculus [18] = assay: Compound was evaluated for analgesia at 100 mg/kg when administered perorally (+ = positive mice >/=2); type: functional; conditions: route oral
Rattus norvegicus [19] = assay: Compound was tested for analgesia by Acetic acid writhing method when administered perorally; type: functional; conditions: po
[20] = Compound was tested for acute toxicity when administered intraperitoneally in mice; type: organism-based; conditions: mouse, in vivo, ip
Rattus norvegicus [21] = assay: Compound was tested for inhibition of contund edema when administered perorally; type: functional; conditions: po
Rattus norvegicus [22] = assay: Compound was tested for anti-pyrexia (Yeast-induced pyrexia) when administered perorally; type: functional; conditions: po

Compound | inhibition in vivo at 100 mg/kg (Rattus norvegicus [1]) | inhibition in vivo at 100 mg/kg (Rattus norvegicus [2]) | further results
Cc1ccc(-c2nc3ccccc3n2CC(=O)N2CCCC2)nc1 | 14% | – | –
NC(=O)c1cccc(-c2nc3ccccc3[nH]2)n1 | – | 13% | –
CCc1cccc(-c2nc3cc(C)ccc3[nH]2)n1 | 10% | – | –
CCc1ccc(-c2nc3ccccc3n2Cc2ccccc2)nc1 | -18% | – | –
OCc1cccc(-c2nc3ccccc3[nH]2)n1 | – | -13% | –
Cc1cccnc1-c1nc2ccccc2[nH]1 | – | 17% | –
CCc1ccc(-c2nc3cc(OC)ccc3[nH]2)nc1 | – | – | Activity (Mus musculus [3]): 1; LD50 [4]: > 300 mg/kg; inhibition in vivo at 100 mg/kg (Rattus norvegicus [5]): 58%
COc1cccc(-c2nc3cc(C)ccc3[nH]2)n1 | 32% | – | –
Cc1cccc(-c2nc3ccccc3[nH]2)n1 | – | 44% | inhibition in vivo at 200 mg/kg (Rattus norvegicus [6]): 59%; Activity (Mus musculus [7]): 1; LD50 [4]: 3250 mg/kg
CCc1ccc(-c2nc3cc(O)ccc3[nH]2)nc1 | 25% | – | –
CCc1ccc(-c2nc3ccccc3n2CC(=O)N2CCCC2)nc1 | -5% | – | –
Cc1ccc2[nH]c(-c3cccc(Cl)n3)nc2c1 | – | 36% | –
Cc1ccc(-c2nc3ccccc3[nH]2)nc1 | – | 19% | –
CCc1ccc(-c2nc3ccccc3n2CC(=O)N2CCN(CCO)CC2)nc1 | 4% | – | –
CCCCc1ccc(-c2nc3ccccc3[nH]2)nc1 | – | -16% | –
Cl.O=C(Cn1c(=O)sc2ccc(Cl)cc21)N1CCN(CCO)CC1 [TIARAMIDE HYDROCHLORIDE] | 31% | – | LD50 (Mus musculus [8]): 203 mg/kg; UD50 (Rattus norvegicus [9]): 163 mg/kg; ED40 (Rattus norvegicus [10]): 160 mg/kg; IC50 (Cyclooxygenase): > 0.0001 M; ED60 (Rattus norvegicus [11]): 100 mg/kg; ED40 (Rattus norvegicus [12]): 200 mg/kg; ED40 (Rattus norvegicus [13]): 200 mg/kg; ED50 (Rattus norvegicus [14]): 76 mg/kg
COc1cccc(-c2nc3ccccc3[nH]2)n1 | – | 47% | Activity (Mus musculus [15]): >=2; LD50 [4]: > 300 mg/kg
COC(=O)Cn1c(-c2ccccn2)nc2ccccc21 | -17% | – | –
CCOC(=O)c1ccc(-c2nc3ccccc3[nH]2)nc1 | – | -16% | –
CCc1ccc(-c2nc3cc(NC(C)=O)ccc3[nH]2)nc1 | 5% | – | –
Cc1ccc2[nH]c(-c3ccc(C)c(C)n3)nc2c1 | -19% | – | –
COc1ccc2[nH]c(-c3ccccn3)nc2c1 | – | 34% | –
Cc1ccc2[nH]c(-c3cccc(C)n3)nc2c1 | 42% | – | Activity (Mus musculus [3]): 1; inhibition in vivo at 200 mg/kg (Rattus norvegicus [16]): 67%; LD50 [4]: 812 mg/kg
Cc1ccc(-c2nc3ccccc3[nH]2)nc1C | 37% | – | –
CCc1ccc(-c2nc3cc(N)ccc3[nH]2)nc1 | 25% | – | –
Clc1ccc2nc(-c3ccccn3)[nH]c2c1 | – | 36% | –
Cc1ccnc(-c2nc3ccccc3[nH]2)c1 | – | -4% | –
Cc1ccc(-c2nc3ccccc3n2CC(=O)N2CCCCC2)nc1 | 2% | – | –

Compound | inhibition in vivo at 100 mg/kg (Rattus norvegicus [1]) | inhibition in vivo at 100 mg/kg (Rattus norvegicus [2]) | further results
CCc1ccc(-c2nc3cc(Cl)ccc3[nH]2)nc1 | -2% | – | –
Cc1ccc(-c2nc3cc(C)ccc3[nH]2)nc1 | – | 7% | –
CCc1cccc(-c2nc3cc(OC)ccc3[nH]2)n1 | 52% | – | Activity (Mus musculus [3]): 1; inhibition in vivo at 200 mg/kg (Rattus norvegicus [16]): 87%; LD50 [4]: > 300 mg/kg
Clc1cccc(-c2nc3ccccc3[nH]2)n1 | – | 30% | –
Cc1ccc(-c2nc3ccccc3n2CC(=O)N2CCN(C)CC2)nc1 | 11% | – | –
CCc1ccc(-c2nc3cc(C)ccc3[nH]2)nc1 | – | – | inhibition in vivo at 100 mg/kg (Rattus norvegicus [17]): 35%
CCc1cccc(-c2nc3cc(Cl)ccc3[nH]2)n1 | 3% | – | –
COc1ccc2[nH]c(-c3cccc(C)n3)nc2c1 | 40% | – | Activity (Mus musculus [3]): 1; inhibition in vivo at 200 mg/kg (Rattus norvegicus [16]): 39%; LD50 [4]: 3730 mg/kg
Cc1ccc(-c2nc3ccccc3n2CC(=O)N2CCN(CCO)CC2)nc1 | 14% | – | –
Cc1ccc(-c2nc3ccccc3n2CCN(C)C)nc1 | 12% | – | –
Cc1cccc(-c2nc3cc(O)ccc3[nH]2)n1 | 6% | – | –
c1ccc(-c2nc3ccccc3[nH]2)nc1 | – | 22% | –
Cc1ccc2nc(-c3ccccn3)[nH]c2c1 | – | 35% | –
OCc1ccc(-c2nc3ccccc3[nH]2)nc1 | – | -10% | –
Cc1ccc2[nH]c(-c3cccc(O)n3)nc2c1 | -6% | – | –
CCOC(=O)c1cccc(-c2nc3ccccc3[nH]2)n1 | – | 31% | –
Oc1cccc(-c2nc3ccccc3[nH]2)n1 | – | -7% | –
CCc1ccc(-c2nc3ccccc3n2CC(=O)OC)nc1 | 9% | – | –
CCc1ccc(-c2nc3cc([N+](=O)[O-])ccc3[nH]2)nc1 | -5% | – | –
CCc1ccc(-c2nc3ccccc3n2-c2ccccc2)nc1 | 12% | – | –
Cc1ccc(-c2nc3cc(Cl)ccc3[nH]2)nc1 | -5% | – | –
CCc1ccc(-c2nc3ccccc3n2C)nc1 | 5% | – | –
CCCCC1C(=O)N(c2ccccc2)N(c2ccccc2)C1=O [PHENYLBUTAZONE] | 43% | – | LD50 (Mus musculus [8]): 616 mg/kg; UD50 (Rattus norvegicus [9]): 142 mg/kg; ED40 (Rattus norvegicus [10]): 100 mg/kg; IC50 (Cyclooxygenase): 0.000015 M; ED60 (Rattus norvegicus [11]): 44 mg/kg; ED40 (Rattus norvegicus [12]): 200 mg/kg; ED40 (Rattus norvegicus [13]): 180 mg/kg; ED50 (Rattus norvegicus [14]): 280 mg/kg
Cc1cccc(-c2nc3cc(Cl)ccc3[nH]2)n1 | 39% | – | Activity (Mus musculus [3]): 1; inhibition in vivo at 200 mg/kg (Rattus norvegicus [16]): 95%; LD50 [4]: 1230 mg/kg
CCc1cccc(-c2nc3ccccc3[nH]2)n1 | – | 41% | inhibition in vivo at 200 mg/kg (Rattus norvegicus [16]): 85%; LD50 [4]: > 300 mg/kg
O=C(Cn1c(-c2ccccn2)nc2ccccc21)N1CCN(CCO)CC1 | -4% | – | –
CCc1ccc(-c2nc3ccccc3[nH]2)nc1 | – | 44% | Activity (Mus musculus [18]): 2; UD50 (Rattus norvegicus [9]): 200 mg/kg; ED50 (Rattus norvegicus [19]): 140 mg/kg; ED40 (Rattus norvegicus [10]): 70 mg/kg; LD50 [20]: 1230 mg/kg; IC50 (Cyclooxygenase): 0.000076 M; ED40 (Rattus norvegicus [13]): 110 mg/kg; inhibition in vivo at 200 mg/kg (Rattus norvegicus [16]): 81%; ED40 (Rattus norvegicus [21]): 142 mg/kg; LD50 [4]: 1230 mg/kg; ED60 (Rattus norvegicus [22]): 68 mg/kg
